# Test results reported in PMC9037111, “Structure-based design, synthesis, and biological evaluation of novel piperine–resveratrol hybrids as antiproliferative agents targeting SIRT-2” (RSC Advances, 2021).
# Where two headings read alike, the source gives them in different places.
# Key:
# [1] = tested on: MCF7; experiment: cells; design: species or system NCI-60 human tumour cell lines; NCI-60 one-dose screen at 10 uM, percent growth inhibition versus untreated control cells; details: Homo sapiens, MCF7, growth inhibition, one dose
# Protocol: (§1) The antiproliferative activity of the target compounds 5a–h was screened against a panel of 60 cancer cell lines according to NCI-guidelines at concentration of 10 μM. The results for each compound (Table 1) were recorded as the percent of growth inhibition of treated cells compared to untreated control cells. […] In addition, 5b recorded significant activity against leukemia cancer cell lines K-562 and MOLT-4, Non-small cell lung cancer cell lines NCI-H322M and NCI-H460, Colon cancer cell lines COLO 205, HCT-15 and HCT-116, CNS cancer cell lines SF-295 and SF-539, Melanoma cancer cell lines LOX IMVI and UACC-62, Ovarian cancer cell lines NCI/ADR-RES, OVCAR-3, and OVCAR-4, Renal cancer cell lines CAKI-1, ACHN, and UO-31, and Breast cancer MCF7 cell line with growth inhibition percentage between 80 to 95. […] The methodology of the NCI anticancer screening has been described in detail elsewhere (https://dtp.cancer.gov/).[52]
# [2] = tested on: HCT-15; experiment: cells; design: species or system NCI-60 human tumour cell lines; NCI-60 one-dose screen at 10 uM, percent growth inhibition versus untreated control cells; details: Homo sapiens, HCT-15, growth inhibition, one dose
# Protocol: as §1
# [3] = tested on: KM12; experiment: cells; design: species or system NCI-60 human tumour cell lines; NCI-60 one-dose screen at 10 uM, percent growth inhibition versus untreated control cells; details: Homo sapiens, KM12, growth inhibition, one dose
# Protocol: as §1
# [4] = tested on: MDA-MB-435; experiment: cells; design: species or system NCI-60 human tumour cell lines; NCI-60 one-dose screen at 10 uM, percent growth inhibition versus untreated control cells; details: Homo sapiens, MDA-MB-435, growth inhibition, one dose
# Protocol: as §1
# [5] = tested on: K-562; experiment: cells; design: species or system NCI-60 human tumour cell lines; NCI-60 one-dose screen at 10 uM, percent growth inhibition versus untreated control cells; details: Homo sapiens, K562, growth inhibition, one dose
# Protocol: as §1
# [6] = tested on: MDA-MB-231/ATCC; experiment: cells; design: species or system NCI-60 human tumour cell lines; NCI-60 one-dose screen at 10 uM, percent growth inhibition versus untreated control cells; details: Homo sapiens, MDA-MB-231, growth inhibition, one dose
# Protocol: as §1
# [7] = tested on: SF-539; experiment: cells; design: species or system NCI-60 human tumour cell lines; NCI-60 one-dose screen at 10 uM, percent growth inhibition versus untreated control cells; details: Homo sapiens, SF-539, growth inhibition, one dose
# Protocol: as §1
# [8] = target: T1, SIRT2 (Homo sapiens, UniProt Q8IXJ6); experiment: sirtuin deacetylase inhibition assay, IC50; assay type: biochemical
# T1 sequence (Q8IXJ6 2-389): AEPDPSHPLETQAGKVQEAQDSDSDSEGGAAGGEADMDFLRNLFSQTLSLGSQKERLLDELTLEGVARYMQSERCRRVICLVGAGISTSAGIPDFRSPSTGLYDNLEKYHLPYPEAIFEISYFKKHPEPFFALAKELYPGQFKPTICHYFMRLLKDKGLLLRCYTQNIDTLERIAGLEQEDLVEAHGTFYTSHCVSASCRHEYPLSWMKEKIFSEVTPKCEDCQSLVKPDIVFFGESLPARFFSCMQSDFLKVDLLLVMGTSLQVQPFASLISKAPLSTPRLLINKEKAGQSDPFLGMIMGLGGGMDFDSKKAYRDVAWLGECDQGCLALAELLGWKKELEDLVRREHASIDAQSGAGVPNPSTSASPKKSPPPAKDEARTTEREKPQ
# [9] = tested on: HOP-92; experiment: cells; design: species or system NCI-60 human tumour cell lines; NCI-60 one-dose screen at 10 uM, percent growth inhibition versus untreated control cells; details: Homo sapiens, HOP-92, growth inhibition, one dose
# Protocol: as §1
# [10] = tested on: HOP-62; experiment: cells; design: species or system NCI-60 human tumour cell lines; NCI-60 one-dose screen at 10 uM, percent growth inhibition versus untreated control cells; details: Homo sapiens, HOP-62, growth inhibition, one dose
# Protocol: as §1
# [11] = tested on: 786-0; experiment: cells; design: species or system NCI-60 human tumour cell lines; NCI-60 one-dose screen at 10 uM, percent growth inhibition versus untreated control cells; details: Homo sapiens, 786-0, growth inhibition, one dose
# Protocol: as §1
# [12] = tested on: HS 578 T; experiment: cells; design: species or system NCI-60 human tumour cell lines; NCI-60 one-dose screen at 10 uM, percent growth inhibition versus untreated control cells; details: Homo sapiens, Hs-578T, growth inhibition, one dose
# Protocol: as §1
# [13] = tested on: HCT-116; experiment: cells; design: species or system NCI-60 human tumour cell lines; NCI-60 one-dose screen at 10 uM, percent growth inhibition versus untreated control cells; details: Homo sapiens, HCT-116, growth inhibition, one dose
# Protocol: as §1
# [14] = tested on: SK-MEL-2; experiment: cells; design: species or system NCI-60 human tumour cell lines; NCI-60 one-dose screen at 10 uM, percent growth inhibition versus untreated control cells; details: Homo sapiens, SK-MEL-2, growth inhibition, one dose
# Protocol: as §1
# [15] = tested on: MALME-3M; experiment: cells; design: species or system NCI-60 human tumour cell lines; NCI-60 one-dose screen at 10 uM, percent growth inhibition versus untreated control cells; details: Homo sapiens, Malme-3M, growth inhibition, one dose
# Protocol: as §1
# [16] = tested on: OVCAR-3; experiment: cells; design: species or system NCI-60 human tumour cell lines; NCI-60 one-dose screen at 10 uM, percent growth inhibition versus untreated control cells; details: Homo sapiens, OVCAR-3, growth inhibition, one dose
# Protocol: as §1
# [17] = read-out: Growth% inhibition / 5d
# [18] = read-out: Growth% inhibition / 5a
# [19] = read-out: Growth% inhibition / 5b
# [20] = read-out: Growth% inhibition / 5e
# [21] = read-out: Growth% inhibition / 5h
compound,measurement,setting,value
"CN(C)c1ccc(C=NNC(=O)/C=C/C=C/c2ccc3c(c2)OCO3)cc1 (mixture of isomers) [5d, (2E,4E)-5-(Benzo[d][1,3]dioxol-5-yl)-N′-((E/Z)-4-(dimethylamino)-benzylidene)penta-2,4-dienehydrazide]",inhibition at 10 µM,[1]; [17],43.6%
same,inhibition at 10 µM,[2]; [17],24.2%
same,inhibition at 10 µM,[3]; [17],14.2%
same,inhibition at 10 µM,[4]; [17],70.1%
same,inhibition at 10 µM,[5]; [17],56.1%
"O=C(/C=C/C=C/c1ccc2c(c1)OCO2)NN=Cc1ccc(O)cc1 [5a, (2E,4E)-5-(Benzo[d][1,3]dioxol-5-yl)-N′-((E,Z)-4-hydroxybenzylidene)penta-2,4-dienehydrazide]",inhibition at 10 µM,[1]; [18],28.8%
same,inhibition at 10 µM,[2]; [18],39.7%
same,inhibition at 10 µM,[3]; [18],33.4%
same,inhibition at 10 µM,[4]; [18],73%
same,inhibition at 10 µM,[5]; [18],58.8%
same,inhibition at 10 µM,[6]; [18],17.2%
same,inhibition at 10 µM,[7]; [18],17.6%
"O=C(/C=C/C=C/c1ccc2c(c1)OCO2)N/N=C/c1ccc(O)cc1O [5b, (2E,4E)-5-(Benzo[d][1,3]dioxol-5-yl)-N′-((E)-2,4-dihydroxybenzylidene)penta-2,4-dienehydrazide]",IC50,[8],21 ± 3 µM
same,inhibition at 10 µM,[9]; [19],46.6%
same,inhibition at 10 µM,[10]; [19],72.9%
same,inhibition at 10 µM,[11]; [19],71%
same,inhibition at 10 µM,[1]; [19],85.9%
same,inhibition at 10 µM,[2]; [19],83%
same,inhibition at 10 µM,[12]; [19],29.8%
same,inhibition at 10 µM,[3]; [19],76.6%
same,inhibition at 10 µM,[4]; [19],67.4%
same,inhibition at 10 µM,[5]; [19],88.4%
same,inhibition at 10 µM,[13]; [19],91.3%
same,inhibition at 10 µM,[6]; [19],65.6%
same,inhibition at 10 µM,[7]; [19],85.7%
same,inhibition at 10 µM,[14]; [19],47.2%
same,inhibition at 10 µM,[15]; [19],59.7%
same,inhibition at 10 µM,[16]; [19],90.3%
"CCN(CC)c1ccc(/C=N/NC(=O)/C=C/C=C/c2ccc3c(c2)OCO3)c(O)c1 [5e, (2E,4E)-5-(Benzo[d][1,3]dioxol-5-yl)-N′-((E)-4-(diethylamino)-2-hydroxybenzylidene)penta-2,4-dienehydrazide]",IC50,[8],23 ± 2 µM
same,inhibition at 10 µM,[9]; [20],51.6%
same,inhibition at 10 µM,[10]; [20],71.5%
same,inhibition at 10 µM,[11]; [20],52.8%
same,inhibition at 10 µM,[1]; [20],80.5%
same,inhibition at 10 µM,[2]; [20],78.7%
same,inhibition at 10 µM,[12]; [20],31.9%
same,inhibition at 10 µM,[3]; [20],69.8%
same,inhibition at 10 µM,[4]; [20],51.1%
same,inhibition at 10 µM,[5]; [20],82.4%
same,inhibition at 10 µM,[13]; [20],92.1%
same,inhibition at 10 µM,[6]; [20],56.8%
same,inhibition at 10 µM,[7]; [20],77.3%
same,inhibition at 10 µM,[14]; [20],34.3%
same,inhibition at 10 µM,[15]; [20],43.5%
same,inhibition at 10 µM,[16]; [20],95.1%
"C/C(=N\NC(=O)/C=C/C=C/c1ccc2c(c1)OCO2)c1ccc(Br)cc1 [5h, (2E,4E)-5-(Benzo[d][1,3]dioxol-5-yl)-N′-((E)-1-(4-bromophenyl)ethylidene)penta-2,4-dienehydrazide]",IC50,[8],26 ± 3 µM
same,inhibition at 10 µM,[9]; [21],11.5%
same,inhibition at 10 µM,[10]; [21],33.2%
same,inhibition at 10 µM,[11]; [21],14.6%
same,inhibition at 10 µM,[1]; [21],38.7%
same,inhibition at 10 µM,[2]; [21],36.3%
same,inhibition at 10 µM,[12]; [21],86.5%
same,inhibition at 10 µM,[3]; [21],24.9%
same,inhibition at 10 µM,[4]; [21],13.6%
same,inhibition at 10 µM,[5]; [21],40.1%
same,inhibition at 10 µM,[13]; [21],12.3%
same,inhibition at 10 µM,[6]; [21],21%
same,inhibition at 10 µM,[7]; [21],12.5%
same,inhibition at 10 µM,[14]; [21],11%
same,inhibition at 10 µM,[15]; [21],28.7%
same,inhibition at 10 µM,[16]; [21],24.4%
